One experiment addresses Plk1 (Homo sapiens (Human), UniProt P53350). As to the kind of experiment: PLK1 inhibition assay (radioactive-phosphate incorporation). In kind it is biochemical. Particulars: Ki(app), read-out: PLK1 - 33P.ENZ - CB 10 Ki. The method in brief: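 Radioactive-phosphate incorporation with 15 nM Plk1 and 9 µM Sam68 substrate, 20 µM [γ-33P]ATP, in 25 mM HEPES pH 7.5, 10 mM MgCl2, 25 mM NaCl, 2 mM DTT, 1.5% DMSO, room temperature, 45 min. Stopped with TCA/cold ATP, filtered, scintillation counted. Ki(app) from non-linear regression of background-corrected initial rates.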

The test system of experiment [1] is non-small cell lung cancer (NSCLC) adenocarcinoma line D33966. As to the kind of experiment: In vivo efficacy, NSCLC patient derived xenograft OD33966. More on the design: species or system nu/nu mice. To be noted: Mus musculus, NSCLC PDX OD33966, oral, read-out: % TGI; for inhibition in vivo at 100 mg/kg: 100 mpk qd. The procedure: Female immune deficient mice (Charles River, 4-6 wks age) were anesthetized with Ketamine-Xylazine (140 mg/kg-14 mg/kg ip) and shaved. Puralube eye ointment was applied to the eyes to prevent desiccation of the corneas. Betadine and 70% ethanol was applied to the shaved location to sterilize the skin at the location of the incision. The animals were placed in a biosafety cabinet for the duration of the surgery. Using scissors, an 8 to 10 mm incision was made in the lateral flank of the skin. A tumor fragment weighing between 50 and 150 mg was placed under the skin at the incision site using forceps, and staples were used to close the incision. The staples were removed 5 to 7 days after surgery. Starting approximately two weeks after implantation, animals were weighed, and tumors were measured using caliper twice weekly. Tumor volume was calculated using the formula: volume=length×width^2×0.52.
Compound administration began when xenografts reached approximately 100-300 mm3 and continued until control xenografts reached […] of the animal's body weight. Test compounds were administered orally by gastric gavage. Percent tumor growth inhibition (TG) was calculated on the indicated treatment day. Percent TGI is defined as: [1−(del T/del C)]×100%, where del T is the final minus initial average volumes of the treated group, and del C is the final minus initial average volumes of the control group. […] The tested compounds were administered orally. Vehicle control consisted of either 0.5% methylcellulose/0.1% sodium lauryl sulfate or 20% captisol. Tumor volumes were determined by caliper measurement twice a week.

For another experiment, the system named is Colo-205 WFS1 shRNA. As to the kind of experiment: TCF reporter activity, Colo-205 WFS1 shRNA. The experiment is classed as cell-based. Particulars: Homo sapiens. The procedure: (§1) Colo-205 (ATCC, catalog #CCL-222), HepG2 (ATCC, catalog #HB-8065), CFPAC1 (ATCC, catalog #CRL-1918), or DU4475 (ATCC, catalog #HTB-123) cells are plated in 10 mL of complete DMEM cell culture media [DMEM (Life Technologies, product #11960-051) media supplemented with 10% FBS (Hyclone, catalog #SH30071.03), antimycotic/antibiotic (Life Technologies, product #15240-062), and Glutamax (Life Technologies, product #35050-061)] at 3×10^6 cells per 10 cm cell culture plate (Corning, product #430167). Cells are allowed to attach and grow overnight at 37° C. in humidified 5% CO2. Cells are transduced by addition of 1×10^6 infectious units of lentivirus encoding WFS1 shRNA (Santa Cruz Biotech, catalog #sc-61804-V) or a non-targeting control shRNA (Santa Cruz Biotech, catalog #sc-108080) and 10 ug/ml of Polybrene® (Santa Cruz Biotech, catalog #sc-134220) to the cell culture media. After 48 hours transduced cells are selected by the addition of 1 microgram/mL of puromycin (Life Technologies, catalog #A1113803) to the cell culture media.

Experiment [2] concerns HepG2 cells, non-targeting control shRNA. Kind of experiment: Cell viability, HepG2 control shRNA. The experiment is classed as cell-based. Particulars: Homo sapiens. The procedure: as §1
For experiment [3], the system named is DU4475 cells, non-targeting control shRNA. As to the kind of experiment: Cell viability, DU4475 control shRNA. In kind it is cell-based. Particulars: Homo sapiens, DU-4475. The procedure: as §1
Experiment [4] concerns Colo-205 cells, non-targeting control shRNA. As to the kind of experiment: Cell viability, Colo-205 control shRNA. In kind it is cell-based. Particulars: Homo sapiens. The procedure:
as §1

The next experiment has as its system DU4475 WFS1 shRNA. Kind of experiment: TCF reporter activity, DU4475 WFS1 shRNA. The experiment is classed as cell-based. Particulars: Homo sapiens, DU-4475. The procedure:
as §1

The test system of a further experiment is DU4475 Control shRNA. Kind of experiment: TCF reporter activity, DU4475 Control shRNA. In kind it is cell-based. To be noted: Homo sapiens, DU-4475. The procedure: as §1
Experiment [5] relates to DU4475 cells, shRNA targeting WFS1. Kind of experiment: Cell viability, DU4475 WFS1 shRNA. In kind it is cell-based. To be noted: Homo sapiens, DU-4475. The procedure:
as §1

For a further experiment, the system named is Colo-205 Control shRNA. As to the kind of experiment: TCF reporter activity, Colo-205 Control shRNA. The experiment is classed as cell-based. Particulars: Homo sapiens. The procedure: as §1
In experiment [6] the test system is HepG2 cells, shRNA targeting WFS1. Kind of experiment: Cell viability, HepG2 WFS1 shRNA. The experiment is classed as cell-based. To be noted: Homo sapiens. The procedure: as §1
The test system of experiment [7] is Colo-205 cells, shRNA targeting WFS1. Kind of experiment: Cell viability, Colo-205 WFS1 shRNA. The experiment is classed as cell-based. The procedure:
as §1

The values below come from patent US20230312587A1, “PTERIDINONE COMPOUNDS AND USES THEREOF” (Vertex Pharmaceutical Incorporated, priority 2018, published 2023).

pKi: −log10 of the molar value. Read-outs that look alike come from different tables or passages of the source.

Plk1, sequence (P53350 whole entry, species assumed): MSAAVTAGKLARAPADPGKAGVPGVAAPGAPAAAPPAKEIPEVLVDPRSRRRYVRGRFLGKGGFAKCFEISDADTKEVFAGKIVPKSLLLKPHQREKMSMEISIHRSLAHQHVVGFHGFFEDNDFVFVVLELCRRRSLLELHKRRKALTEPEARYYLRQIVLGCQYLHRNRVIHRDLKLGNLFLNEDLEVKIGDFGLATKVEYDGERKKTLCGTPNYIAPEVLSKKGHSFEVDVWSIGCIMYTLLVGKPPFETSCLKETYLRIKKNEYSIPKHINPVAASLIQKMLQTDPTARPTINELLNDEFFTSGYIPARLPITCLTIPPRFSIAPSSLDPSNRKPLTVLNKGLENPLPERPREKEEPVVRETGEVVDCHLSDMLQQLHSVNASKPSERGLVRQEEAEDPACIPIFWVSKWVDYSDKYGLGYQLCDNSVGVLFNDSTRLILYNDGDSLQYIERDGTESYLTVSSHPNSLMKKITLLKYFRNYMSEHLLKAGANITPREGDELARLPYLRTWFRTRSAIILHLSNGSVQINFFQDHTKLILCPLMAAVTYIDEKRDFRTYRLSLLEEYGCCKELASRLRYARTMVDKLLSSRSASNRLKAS

As a reminder, the pKi is the negative decadic logarithm of the Ki, by convention in mol/L. On to `Cc1nc(N[C@@H]2CC[C@@H](n3ccc(C(F)(F)F)n3)C2)nc2c1NC(=O)[C@H](C)N2C` (single isomer, unassigned) [Compound 311], for which the pKi on Plk1 was < 5.40. Take `Cc1nc(NCc2cnn(Cc3ccc(F)cc3)c2)nc2c1N(C)C(=O)[C@H](C)N2C` [Compound 1, (7S)-2-(((1-(4-fluorobenzyl)-1H-pyrazol-4-yl)methyl)amino)-4,5,7,8-tetramethyl-7,8-dihydropteridin-6(5H)-one]: the pKi at Plk1 is < 5.40. In addition, in experiment [1] (456 h, 200 mpk bid, treatment day 19), the inhibition in vivo at 200 mg/kg is 94.5%.

Take `Cc1nc(NCc2cnn(Cc3ccc(F)cc3)c2)nc2c1NC(=O)[C@H](C)N2C` [Compound 4, (7S)-2-(((1-(4-fluorobenzyl)-1H-pyrazol-4-yl)methyl)amino)-4,7,8-trimethyl-7,8-dihydropteridin-6(5H)-one]: on Plk1, the pKi is < 5.40.

In the case of `Cc1nc(NCc2cnn(CCc3ccc(F)cc3)c2)nc2c1NC(=O)[C@H](C)N2C` [Compound 6, (7S)-2-(((1-(4-fluorophenethyl)-1H-pyrazol-4-yl)methyl)amino)-4,7,8-trimethyl-7,8-dihydropteridin-6(5H)-one], the pKi at Plk1 was < 5.40. The same measure, in the same setting: with `Cc1nc(NCc2cnn(CC3CCC3)c2)nc2c1N(C)C(=O)[C@H](C)N2C` [Compound 7, (7S)-2-(((1-(cyclobutylmethyl)-1H-pyrazol-4-yl)methyl)amino)-4,5,7,8-tetramethyl-7,8-dihydropteridin-6(5H)-one] the figure was < 5.40; with `Cc1nc(NCc2cnn(CCc3ccc(F)cc3)c2)nc2c1N(C)C(=O)[C@H](C)N2C` [Compound 8, (7S)-2-(((1-(4-fluorophenethyl)-1H-pyrazol-4-yl)methyl)amino)-4,5,7,8-tetramethyl-7,8-dihydropteridin-6(5H)-one], < 5.40. In the case of `CC[C@H]1C(=O)Nc2cnc(NCc3cnn(Cc4ccc(F)cc4)c3)nc2N1C` [Compound 9, (7S)-7-ethyl-2-(((1-(4-fluorobenzyl)-1H-pyrazol-4-yl)methyl)amino)-8-methyl-7,8-dihydropteridin-6(5H)-one], on Plk1, the pKi is < 5.40. Consider `COc1c(F)cc(Cn2cc(CNc3nc(C)c4c(n3)N(C)[C@@H](C)C(=O)N4)cn2)cc1F` [Compound 46, (7S)-2-(((1-(3,5-difluoro-4-methoxybenzyl)-1H-pyrazol-4-yl)methyl)amino)-4,7,8-trimethyl-7,8-dihydropteridin-6(5H)-one], for which, at Plk1, the pKi was < 5.40. Further, the inhibition in vivo at 100 mg/kg in [1] (336 h, treatment day 14) amounted to 93.3%.

For `Cc1nc(NCc2cnn(Cc3ccc(F)nc3)c2)nc2c1NC(=O)[C@H](C)N2C` [Compound 77], in experiment [1] (336 h, treatment day 14), the inhibition in vivo at 100 mg/kg was found to be 98.5%. On the same count and under the same terms, the value for `COc1cc(F)ccc1Cn1cc(CNc2nc(C)c3c(n2)N(C)[C@@H](C)C(=O)N3)cn1` [Compound 83, (7S)-2-(((1-(4-fluoro-2-methoxybenzyl)-1H-pyrazol-4-yl)methyl)amino)-4,7,8-trimethyl-7,8-dihydropteridin-6(5H)-one] was 97.2%; that for `Cc1cc(F)ncc1Cn1cc(CNc2nc(C)c3c(n2)N(C)[C@@H](C)C(=O)N3)cn1` [Compound 94, (7S)-2-(((1-((6-fluoro-4-methylpyridin-3-yl)methyl)-1H-pyrazol-4-yl)methyl)amino)-4,7,8-trimethyl-7,8-dihydropteridin-6(5H)-one] was 94.5%. Consider `Cc1nc(NCc2cnn(Cc3cc(C(F)(F)F)nn3C)c2)nc2c1NC(=O)[C@H](C)N2C` [Compound 160, (7S)-4,7,8-trimethyl-2-(((1-((1-methyl-3-(trifluoromethyl)-1H-pyrazol-5-yl)methyl)-1H-pyrazol-4-yl)methyl)amino)-7,8-dihydropteridin-6(5H)-one], for which the pKi at Plk1 is < 5.40.

Take `Cc1nc(N[C@H]2C[C@H](Oc3cc(F)c(F)c(F)c3)C2)nc2c1NC(=O)[C@H](C)N2C` [Compound 246, (7S)-4,7,8-trimethyl-2-((trans-3-(3,4,5-trifluorophenoxy)cyclobutyl)amino)-7,8-dihydropteridin-6(5H)-one]: the pKi on Plk1 was < 5.40. Moreover, in [1] (264 h, treatment day 11), the inhibition in vivo at 100 mg/kg was found to be 82.6%. For `Cc1nc(N[C@H]2C[C@@H](Oc3cc(F)c(F)c(F)c3)C2)nc2c1NC(=O)[C@H](C)N2C` [Compound 247, (7S)-4,7,8-trimethyl-2-((cis-3-(3,4,5-trifluorophenoxy)cyclobutyl)amino)-7,8-dihydropteridin-6(5H)-one], on Plk1, the pKi was < 5.40. What is called IC50 is the midpoint of a concentration-inhibition curve. A lower IC50 goes with greater potency in that assay. Regarding `Cc1nc(N[C@H]2C[C@H](Oc3cc(F)c(F)c(F)c3)C2)nc2c1N(C)C(=O)[C@H](C)N2C` [Compound 253, (7S)-4,5,7,8-tetramethyl-2-((trans-3-(3,4,5-trifluorophenoxy)cyclobutyl)amino)-7,8-dihydropteridin-6(5H)-one], the IC50 with Colo-205 WFS1 shRNA worked out at 1.5 µM; in experiment [2], 0.2 µM; in experiment [3] it was 0.1 µM; in [4], 0.14 µM; in the experiment with DU4475 WFS1 shRNA it was 1 µM; in the experiment with DU4475 Control shRNA it was 0.2 µM. Also, the IC50 in experiment [5] was 7.8 µM; with Colo-205 Control shRNA it was 0.2 µM; in experiment [6], 17 µM; in experiment [7] (Homo sapiens, Colo-205 WFS1 shRNA), > 9 µM. Moreover, at Plk1, the pKi is < 5.40. The inhibition in vivo at 100 mg/kg in experiment [1] (336 h, treatment day 14) is 96.6%. Also, the “increase in the IC50 in reducing cell viability on WFS1 knockdown” value in [7] (DU4475, Colo-205 and HepG2 cells, WFS1 shRNA vs control cells) is listed as “greater than 50 fold”. With `Cc1nc(N[C@@H]2CC[C@@H](Oc3cc(F)c(F)c(F)c3)C2)nc2c1N(C)C(=O)[C@H](C)N2C` [Compound 272, (S)-4,5,7,8-tetramethyl-2-(((1R,3R)-3-(3,4,5-trifluorophenoxy)cyclopentyl)amino)-7,8-dihydropteridin-6(5H)-one], the inhibition in vivo at 100 mg/kg in [1] (336 h, treatment day 14) came to 77.9%. As for `Cc1nc(N[C@H]2C[C@H](Oc3ccnc(C(F)(F)F)c3)C2)nc2c1NC(=O)[C@H](C)N2C` [Compound 335, (7S)-4,7,8-trimethyl-2-((trans-3-((2-(trifluoromethyl)pyridin-4-yl)oxy)cyclobutyl)amino)-7,8-dihydropteridin-6(5H)-one], the pKi on Plk1 was < 5.40. On to `Cc1nc(N(C)Cc2cnn(Cc3ccc(C(F)(F)F)nc3)c2)nc2c1NC(=O)[C@H](C)N2C` [Compound 403, (7S)-4,7,8-trimethyl-2-(methyl((1-((6-(trifluoromethyl)pyridin-3-yl)methyl)-1H-pyrazol-4-yl)methyl)amino)-7,8-dihydropteridin-6(5H)-one], for which, in experiment [1] (288 h, treatment day 12), the inhibition in vivo at 100 mg/kg was 103%. For `CC(=O)N(Cc1cnn(Cc2ccc(C(F)(F)F)nc2)c1)c1nc(C)c2c(n1)N(C)[C@@H](C)C(=O)N2` [Compound 405, (7S)-N-((1-((6-(trifluoromethyl)pyridin-3-yl)methyl)-1H-pyrazol-4-yl)methyl)-N-(4,7,8-trimethyl-6-oxo-5,6,7,8-tetrahydropteridin-2-yl)acetamide], the inhibition in vivo at 100 mg/kg in experiment [1] (288 h, treatment day 12) is 91%.
